Test results: PubChem BioAssay (NCI)
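Interpolation was linear, between the two tested concentrations surrounding the appropriate level; five concentrations were tested over 48 hours in 96-well plates. Here, GI50 denotes the concentration required for 50% inhibition of growth. TGI marks complete inhibition of growth.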

Columns and labels:
Assay in all cases: DTP human tumour cell line panel, 48 h
DMS 114 small cell lung = tested on: DMS 114 small cell lung
MDA-MB-435 = tested on: MDA-MB-435
MDA-MB-231 breast = tested on: MDA-MB-231 breast
HS 578T breast = tested on: HS 578T breast
PC-3 prostate = tested on: PC-3 prostate
T-47D breast = tested on: T-47D breast
MDA-N = tested on: MDA-N
M19-MEL melanoma = tested on: M19-MEL melanoma
DMS 273 small cell lung = tested on: DMS 273 small cell lung

| SMILES | TGI (DMS 114 small cell lung) | GI50 (MDA-MB-435) | TGI (MDA-MB-435) | GI50 (MDA-MB-231 breast) | TGI (MDA-MB-231 breast) | GI50 (HS 578T breast) | TGI (HS 578T breast) | GI50 (PC-3 prostate) | TGI (PC-3 prostate) | GI50 (T-47D breast) | TGI (T-47D breast) | TGI (MDA-N) | TGI (M19-MEL melanoma) | TGI (DMS 273 small cell lung) |
| --- | --- | --- | --- | --- | --- | --- | --- | --- | --- | --- | --- | --- | --- | --- |
| CCC1CNC(=O)CC1CC(=O)OC (stereo not given) | > 100 µM |  |  |  |  |  |  |  |  |  |  |  |  |  |
| COc1cc(NC(=O)Nc2cnc(Nc3ccc(N4CCOCC4)cc3)nc2Oc2cccc(OC)c2)cc(OC)c1 |  | 1.99 µM | 11.5 µM | 1.41 µM | 4.7 µM | 1.97 µM | 20.6 µM | 3.16 µM | 23.7 µM | 2.14 µM | > 50 µM |  |  |  |
| O=C(Cc1ccccc1)NN1C(=O)/C(=C\c2ccc(O)cc2)SC1=Nc1ccccc1 |  |  | > 100 µM |  | > 100 µM |  | > 100 µM |  |  |  | > 100 µM | > 100 µM |  |  |
| Oc1ccc(Cl)cc1Cc1cc(Cl)ccc1O |  | 2.76 µM | 8.44 µM | 1.65 µM | 5.01 µM | 1.91 µM | 7.35 µM | 3.17 µM | 11.6 µM | 2.18 µM | 7.3 µM |  |  |  |
| CSc1ccc(C(=O)C(=O)c2ccc(SC)s2)s1 |  |  | > 10 µM |  | > 10 µM |  | > 10 µM |  | > 10 µM |  | > 10 µM | > 10 µM |  |  |
| CC(=O)N(Cc1ccccc1)c1ccccc1I(=O)=O |  | 49.9 µM | > 100 µM | 50.4 µM | > 100 µM | > 100 µM | > 100 µM |  |  | 36.1 µM | > 100 µM |  |  |  |
| CC(C)C(=O)Oc1cc2c(=O)oc3c(OC(=O)C(C)C)c(OC(=O)C(C)C)cc4c(=O)oc(c1OC(=O)C(C)C)c2c34 |  |  | > 100 µM |  | > 100 µM |  | > 100 µM |  | > 100 µM |  |  | > 100 µM |  |  |
| O=C1C=CC2(C=C1)C[C@H](NC(=O)C(F)(F)F)C(=O)O2 | > 100 µM |  |  |  |  |  |  |  |  |  |  |  | 63.8 µM |  |
| O=C(Cc1csc2nc(-c3ccc(Br)cc3)cn12)N/N=C/c1ccc(O)cc1 |  | 6.27 µM | 24.3 µM | 10.4 µM | 43.2 µM | 23.7 µM | 92.3 µM |  | 23.7 µM | 31.8 µM | > 100 µM |  |  |  |
| Cc1cc([N+](=O)[O-])c(C)c(Br)c1C |  |  | > 100 µM |  | > 100 µM |  | > 100 µM |  | > 100 µM |  | > 100 µM | > 100 µM |  |  |
| Cc1cc(Cl)ccc1NS(=O)(=O)c1ccc(-c2cnc(C3CC3)o2)cc1 |  | 0.0838 µM | 15.5 µM | 0.94 µM | 20 µM | 0.275 µM | 22.2 µM | 0.254 µM | 13.8 µM | 0.369 µM | 42.4 µM |  |  |  |
| Nc1ccc2c(c1)c(N)nn2C(=O)Nc1ccc(Cc2ccccc2)cc1 |  | 7.36 µM | 23.8 µM | 7.74 µM | 22.7 µM | 17.3 µM | 43 µM | 4.33 µM | 24 µM | 5.8 µM | 22.8 µM |  |  |  |
| Cc1nc(N)nc2ccccc12 |  |  | > 100 µM |  | > 100 µM |  | > 100 µM |  | > 100 µM |  | > 100 µM | > 100 µM |  |  |
| C=[CH][Sn]([CH]=C)([O]c1cccc2cccnc12)[O]c1cccc2cccnc12 |  | 7.86 µM | 40.8 µM | 11.9 µM | 36.9 µM |  |  | 3.85 µM | 29.7 µM |  |  |  |  |  |
| CC1=NN(C(=O)c2ccccc2O)C(=O)/C1=C/c1cccc([N+](=O)[O-])c1 | 21.4 µM |  | > 100 µM |  | > 100 µM |  |  |  | > 100 µM |  | > 100 µM | > 100 µM |  |  |
| CC1OC(OC2CCC3(C=O)C4CCC5(C)C(C6=CC(=O)OC6)CCC5(O)C4CCC3(O)C2)C(O)C(O)C1O (stereo not given) |  |  | 7.77e-05 µM |  | 0.0025 µM |  | > 100 µM |  | 0.0025 µM |  |  | 7.94e-05 µM |  |  |
| CCN(CC)CCN(C(=O)C(C)(C)C)c1ccccc1N |  |  |  |  |  |  |  |  | > 100 µM |  |  | > 100 µM |  |  |
| Cc1nc(-n2nc(-c3ccccc3)cc2-c2ccccc2)sc1C(/C=C/c1ccc([N+](=O)[O-])cc1)=N/NC(=O)c1ccncc1 | 58.5 µM |  |  |  |  |  |  |  |  |  |  |  | 92.6 µM |  |
| CC1COCC(C)N1C1=C(Cl)C(=O)c2ccccc2C1=O (stereo not given) |  | 1.35 µM | 2.73 µM | 2.46 µM | 11 µM | 6.38 µM | 50.5 µM | 3.92 µM | 17.8 µM |  |  |  |  |  |
| COc1ccc(CCN2CCc3c(C)c(C#N)c4nc5ccccc5n4c32)cc1OC |  |  | 45 µM |  | 86.1 µM |  | 60.6 µM |  | > 100 µM |  |  | 43.1 µM |  |  |
| N#CC1C=Cc2ccccc2N1C(=O)Oc1ccccc1 (stereo not given) |  |  | 58.7 µM |  | > 100 µM |  | > 100 µM |  | > 100 µM |  | > 100 µM | > 100 µM |  |  |
| O=C(Nc1cccc(NC(=O)c2cc(=O)c3ccccc3o2)n1)c1cc(=O)c2ccccc2o1 | 92 µM |  |  |  |  |  |  |  |  |  |  |  | > 100 µM | 57.8 µM |
| COc1cc2c(c(OC)c1OC)-c1ccc(SC)c(=O)cc1[C@@H](NC(=O)c1ccc(Cl)cc1)CC2 |  |  |  |  |  |  |  |  |  |  |  |  | > 100 µM | > 100 µM |
| COC1(OC)c2no[n+]([O-])c2C(OC)(OC)c2c1no[n+]2[O-] |  |  | 36.2 µM |  | 32.9 µM |  | 97.7 µM |  | 66.6 µM |  | > 100 µM | 62.8 µM |  |  |
| O=C(Nc1ccccc1C(=O)N/N=C(\c1ccccc1)c1ccccn1)c1ccc(F)cc1 |  | 0.602 µM | > 100 µM | 0.705 µM | > 100 µM | 6.48 µM | > 100 µM | 0.792 µM | > 100 µM | 0.394 µM | > 100 µM |  |  |  |
| COc1ccc(C(O)CC(O)(C(F)(F)F)C(F)(F)F)cc1 (stereo not given) |  |  | > 100 µM |  | > 100 µM |  | 61.7 µM |  | 55.7 µM |  | > 100 µM | > 100 µM |  |  |
| O=S(=O)(c1ccc(O)c(C=Nc2ccc(Cl)cc2)c1)c1ccc(O)c(C=Nc2ccc(Cl)cc2)c1 | > 100 µM |  |  |  |  |  |  |  |  |  |  |  | > 100 µM | > 100 µM |
| N=C1C=C(N)C(=O)c2[nH]c(=O)ccc21 |  |  | 2.3 µM |  | 3.46 µM |  | > 100 µM |  | 2.8 µM |  | 4.88 µM | 2.28 µM |  |  |
| CC1(C)OC2C(COS(N)(=O)=O)SC(n3cnc4cncnc43)C2O1 (stereo not given) |  | > 100 µM | > 100 µM | > 100 µM | > 100 µM | > 100 µM | > 100 µM | > 100 µM | > 100 µM | > 100 µM | > 100 µM |  |  |  |
| CSC1=NCC2(S1)c1ccccc1N(C(=O)OC(C)(C)C)C2N1CCCCC1 (stereo not given) |  |  |  | 41.8 µM | > 100 µM | 81.8 µM | > 100 µM | 34.7 µM | > 100 µM |  |  |  |  |  |
